Experimental data from patent publication US20260308158A1, “TARGETING RNAS ASSOCIATED WITH TAUOPATHIES WITH SMALL MOLECULES” (University of Florida Research Foundation, Incorporated, priority 2023, published 2026).
Like-named read-outs stand apart in the source and are kept apart here.

Tests used:
[1] = test system: DDPAC I17T MAPT mini-gene (exon 10 splicing); assay: 4R/3R MAPT mRNA by RT-qPCR, HeLa cells transfected with DDPAC I17T mini-gene; assay type: cell-based
Description: (§1) RNA Isolation and Real-Time Quantitative PCR (RT-qPCR). HeLa cells were treated as described in the Luciferase Reporter assay to Study Exon 10 Alternative Splicing. LAN5 cells were seeded in 12-well plates at 0.2×10^6 cells per well, treated with compound or ASO, and incubated for 48 h. Compound stocks prepared in DMSO and ASO stocks prepared in water were diluted in growth medium and added to cells. Total RNA was extracted from cells and analyzed via RT-qPCR to determine levels of 3R and 4R tau mRNA. In brief, the cells were washed with 1×DPBS and then lysed in the well using 300 μL of Lysis Buffer provided in a Quick-RNA MiniPrep kit (Zymo Research), which was used to extract total RNA per the manufacturer's protocol including the on-column DNase I digestion. The concentration of total RNA was measured by NanoDrop 2000 (Thermo Fisher Scientific). Only samples with OD260/OD280>1.8 were carried forward for analysis. Reverse transcription (RT) was carried out on 200 ng of total RNA using a qScript cDNA synthesis kit (QuantaBio) in a total volume of 10 μL according to the manufacturer's protocol. An Applied Biosystems QS5 384-well PCR system was used to complete qPCR reactions with Power SYBR Green Master Mix (Life Technologies), 600 nM each primer (Table S3), 20 ng of cDNA (1 μL of the RT reaction), in a total volume of 33 μL. Technical triplicates (10 μL each) were aliquoted into 384-well qPCR plates (Applied biosystems, 4483285). Subsequent qPCR analysis was performed using an Applied Biosystems QS5 384-well PCR system (software v.1.3.0). 4R/3R ratio were analyzed using ΔΔCt method using Equation 2: […]
where ΔCt 4R or ΔCt 3R is the difference between the Ct values for the 4R or 3R MAPT mRNA and a housekeeping gene (18S rRNA) in total RNA from cells.

[2] = test system: dually labeled DDPAC MAPT SRE RNA / U1 snRNA mimic; assay: U1 snRNA mimic FRET-based quenching assay; assay type: biochemical
Description: U1 snRNA Mimic Quenching Assay. A 200 nM aliquot of dually labeled model of the DDPAC RNA (5′-FAM-[…]-BHQ-1-3′ (SEQ ID NO: 5); where FAM is 5 (6)-Carboxyfluorescein and BHQ-1 is black hole quencher) was folded in 1× Assay Buffer as described in Fluorescent Binding Affinity Measurements. Compound of interest at the indicated concentration was added, and the samples were incubated at room temperature in the dark for 15 min. A U1 snRNA mimic with sequence 5′-[…]-3′ (SEQ ID NO: 6) was then added to the samples to a final concentration of 20 μM. The fluorescence intensity of FAM was measured as a function of time for 1 h using a […] plate reader, with excitation and emission wavelengths of 485 and 525 nm, respectively.

[3] = Plasma and brain exposure in mice; assay type: in vivo, C57BL/6J mouse; settings: mouse, po, 100 mg/kg p.o., C57BL/6J mice
Description: Quantitation of 2 in Mouse Plasma and Brain. Male C57BL/6J mice (n=3 per time point; 5-7 weeks) were orally administered with 2 (100 mg/kg) in a formulation of DMSO/Tween-80/H2O (5/5/90). After 2, 12, 24, and 48 h, mice were euthanized, and blood and brain were collected. Brains were immediately frozen. Blood was centrifuged to generate plasma and immediately frozen. On the day of analysis, brains were homogenized, mixed with a 5-times volume of acetonitrile, and filtered. The plasma was also filtered. Drug levels were determined by mass spectrometry using an ABSciex 5500 mass spectrometer with multiple reaction monitoring. Compound 2 was detected using the mass transition 435->236.

[4] = test system: MAPT exon 10 splicing in htau mice; assay: MAPT exon 10 splicing in brain of htau mice (RT-qPCR); assay type: in vivo, human MAPT in htau mouse; settings: 100 mg/kg p.o. q.o.d., 20 days
Description: as §1
hTau Mice Studies. htau mice and WT mice (C57BL/6J) were purchased from Jackson Laboratories. htau mice were maintained in-house through breeding between htau+/− mice. Genotype was confirmed by PCR amplification as previously described.^18 Only homozygous mice were used in in vivo studies. Mice were randomly assigned to a treatment group, which were age- and gender-matched (n=X). […] During the treatment period, nesting activity was assessed, as describe in Nesting Activity below. […]

lower IC50 compared with 1 ([2]; end-point FRET assay (FIG. 15C), 2 vs 1): around 5 fold
IC50 ([2]; end-point measurement (5 min), read-out: IC50, reduction in FAM fluorescence (U1 snRNA mimic binding)): 900 ± 200 nM
concentration at 48 h ([3]; brain, read-out: brain concentration): 2900 ± 1600 nM
concentration at 48 h ([3]; plasma, read-out: plasma concentration): 500 ± 300 nM
Structure (SMILES): COc1cc(N)ncc1CCCN(C)CCCn1cnc2c3ccccc3n(C)c2c1=O [Compound 2, 3-(3-((3-(6-amino-4-methoxypyridin-3-yl)propyl)(methyl)amino)propyl)-5-methyl-3,5-dihydro-4H-pyrimido[5,4-b]indol-4-one]
PSI10 (PSI of MAPT exon 10) vs vehicle [1]: not WT I17T or DDPAC I17T mutant
change in 4R/3R ratio (not statistically significant) ([1]; 1 at 10 μM or 2 at 1.5 μM): < 16%
more potent than 1 in multiple biochemical assays ([2]; 2 vs 1, multiple biochemical assays): at least 6 fold
rate of increase of FAM signal (unfolding by U1 snRNA mimic) ([2]; compound 10 μM, vehicle 0.49 min-1): 0.37 min⁻¹
total human MAPT transcript levels ([4]; htau mice): without alteration of total human MAPT transcript levels
reduction of 4R/3R ratio ([4]; htau mice brain): 38±5%
reduction of PSI10 ([4]; htau mice brain): 12±2%
